Assay results published in patent US20190201430A1, “TREATING OCULAR NEOVASCULARIZATION” (Massachusetts Eye and Ear Infirmary, priority 2014, published 2019).
Counter-ions that a name gives are not always drawn.

What was measured:
caveolin-1 [1] = assay: Western blotting of H2O2 induced caveolin-1 phosphorylation in HUVEC; assay type: cell-based, human; settings: for effect of inhibitor pretreatment on the inhibitory effect of AICAR on H2O2 induced caveolin-1 phosphorylation: DPY 8 μM or IODO 0.4 μM 1 h, AICAR 2 mM 2 h, H2O2 2 mM 30 min, FIG. 2
Procedure: (§1) HUVECs (Lonza, Walkersville, Md.) were cultured in Endothelial Growth Medium (EGM, Lonza, Walkersville, Md.). For all experiments, cells were grown at 37° C. in a humidified atmosphere of 5% CO2 and 95% air. Experiments were performed on cells below passage 3 to 6 grown to 80-90% confluence.
(§2) Protein extraction and western blotting were carried out as described previously (Morizane et al. JBC). Densitometric analysis of bands was performed using ImageJ software. Lane-loading differences were normalized by β-actin.
(§3) Cells were transfected with siRNAs using Nucleofection kit (Amaxa Biosysteins, Gaithersburg, Md.), following the manufacturer's protocol. The medium was changed at 6 h after transfection. The down-regulation of each protein was evaluated at 3 days after nucleofection.

caveolin-1 [2] = assay: Western blotting of VEGF induced caveolin-1 phosphorylation in HUVECs; assay type: cell-based, human
Procedure: (§4) Human umbilical vein endothelial cells (HUVECs) were cultured in endothelial growth medium (EGM, Lonza, Walkersville, Md.). Normal human dermal fibroblasts (NHDFs) were cultured in fibroblast basal medium (ATCC, Rockville, Md.). Cells were grown at 37° C. in a humidified atmosphere of 95% air, 5% CO2. Experiments were performed on cells below passage 3 to 6 grown to 80%-90% confluence.
(§5) Protein extraction and Western blotting were carried out as described previously (Morizane et al. JBC (26)). We conducted a densitometric analysis of bands using ImageJ software. Lane-loading differences were normalized by β-actin.
(§6) Cells were transfected with siRNAs using a Nucleofection kit (Amaxa Biosystems, Gaithersburg, Md.), following the manufacturer's protocol. The medium was changed 6 h after transfection. The down-regulation of each protein was evaluated 3 days after nucleofection.

AMPK [3] = assay: Western blotting of AMPK phosphorylation in HUVECs (Example 2); assay type: cell-based, human
Procedure: as §4, §5

AMPK [4] = assay: Western blotting of AMPK phosphorylation in HUVEC (Example 1); assay type: cell-based, human; settings: DPY or IODO 1 h, then AICAR 2 mM 2 h, FIG. 2B,F
Procedure: as §1, §2

c-Abl [5] = assay: Western blotting of H2O2 induced c-Abl phosphorylation in HUVEC; assay type: cell-based, human; settings: DPY 8 μM or IODO 0.4 μM 1 h, AICAR 2 mM 2 h, H2O2 2 mM 30 min; FIG. 2
Procedure: as §1, §2, §3

endothelial cells = settings: in the absence of VEGF; cited from earlier work
PTEN = assay: Western blotting of PTEN phosphorylation in HUVECs; assay type: cell-based, human; settings: IODO 0.1 μM 60 min, then AICAR 2 mM; FIG. 9A,D
Procedure: as §4, §5

Akt = assay: Western blotting of Akt phosphorylation in HUVECs (VEGF); assay type: cell-based, human
Procedure: as §4, §5, §6

prdx1/c-Abl complex [6] = assay: Co-immunoprecipitation of prdx1 and c-Abl under VEGF; assay type: cell-based, human; settings: AK inhibitor IODO; FIG. 15D,E
Procedure: Immunoprecipitation was performed with the Universal Magnetic Co-IP Kit (Active Motif North America, Carlsbad, Calif.) according to the manufacturer's instruction.
as §6

prdx1/c-Abl complex [7] = assay: Co-immunoprecipitation of prdx1 and c-Abl under H2O2; assay type: cell-based, human; settings: IODO before AICAR and H2O2; FIG. 6D
Procedure: Immunoprecipitation was performed with the Universal Magnetic Co-IP Kit (Active Motif North America, Carlsbad, Calif.), according to the manufacturer's instruction.
as §3

c-Abl [8] = assay: Western blotting of VEGF induced c-Abl phosphorylation in HUVECs; assay type: cell-based, human; settings: IODO 0.4 μM 1 h, AICAR 2 mM 2 h, VEGF 12.5 ng/mL 10 min; FIG. 12D,E
Procedure: as §4, §5, §6

[9] = IODO 0.4 μM 1 h, AICAR 2 mM 2 h, VEGF 12.5 ng/mL 10 min, FIG. 12D,E

Structure (SMILES): Cc1ccc(NC(=O)c2ccc(CN3CCN(C)CC3)cc2)cc1Nc1nccc(-c2cccnc2)n1 [imatinib mesylate, Imatinib mesylate]
- H2O2 induced phosphorylation of caveolin-1 (caveolin-1 [1]; HUVEC, imatinib mesylate 10 or 20 uM for 24, 48 or 72 h, then H2O2 2 mM 30 min, FIG. 5A,B): inhibited H2O2 induced phosphorylation of both caveolin-1 and c-Abl dose- and time-dependently
- VEGF-induced phosphorylation of caveolin-1 (caveolin-1 [2]; imatinib mesylate 10 or 20 μM for 24, 48 or 72 h, then VEGF 12.5 ng/mL 10 min, FIG. 14A,C): inhibited the VEGF-induced phosphorylation of caveolin-1 and c-Abl in a time and dose dependent manner

Structure (SMILES): OCCN(CCO)c1nc(N2CCCCC2)c2nc(N(CCO)CCO)nc(N3CCCCC3)c2n1 [DPY, dipyridamole]
- AICAR induced AMPK phosphorylation after DPY pretreatment (AMPK [3]; each concentration of DPY 1 h, then AICAR 2 mM 2 h, FIG. 12B): inhibited AMPK phosphorylation
- effect of inhibitor pretreatment on the inhibitory effect of AICAR on H2O2 induced caveolin-1 phosphorylation (caveolin-1 [1]): significantly restored
- AICAR induced AMPK phosphorylation after inhibitor pretreatment (AMPK [4]): inhibited AICAR induced AMPK phosphorylation dose-dependently
- effect of inhibitor pretreatment on the inhibitory effect of AICAR on H2O2 induced c-Abl phosphorylation (c-Abl [5]): significantly restored

Structure (SMILES): N#Cc1c(O)c2c(-c3ccc(-c4ccccc4O)cc3)csc2[nH]c1=O [A769662, 4-hydroxy-3-[4-(2-hydroxyphenyl)phenyl]-6-oxo-7H-thieno[2,3-b]pyridine-5-carbonitrile]
- endothelial proliferation (endothelial cells): suppressed endothelial proliferation

Structure (SMILES): Nc1ncnc2c1c(I)cn2[C@@H]1O[C@H](CO)[C@@H](O)[C@H]1O [IODO, 5-Iodotubericidin]
- effect of IODO pretreatment on AICAR induced AMPK phosphorylation (AMPK [3]; IODO 0.1 μM 60 min, then AICAR 2 mM, FIG. 9A,B): suppressed and delayed
- effect of inhibitor pretreatment on the inhibitory effect of AICAR on H2O2 induced caveolin-1 phosphorylation (caveolin-1 [1]): significantly restored
- effect of IODO on the inhibitory effect of AICAR on VEGF induced caveolin-1 phosphorylation (caveolin-1 [2]; [9]): significantly abolished
- effect of IODO pretreatment on AICAR induced PTEN phosphorylation (PTEN): suppressed and delayed
- effect of IODO pretreatment on AICAR induced Akt dephosphorylation (Akt; IODO 0.1 μM 60 min, then AICAR 2 mM, FIG. 9A,C): suppressed and delayed
- effect of IODO on the inhibitory effect of AICAR on VEGF induced Akt phosphorylation (Akt; [9]): significantly abolished
- effect of IODO on AICAR inhibition of VEGF induced prdx1/c-Abl dissociation (prdx1/c-Abl complex [6]): abrogated
- prdx1/c-Abl dissociation with IODO prior to H2O2 and AICAR (prdx1/c-Abl complex [7]): restored the dissociation
- AICAR induced AMPK phosphorylation after inhibitor pretreatment (AMPK [4]): inhibited AICAR induced AMPK phosphorylation dose-dependently
- effect of IODO on the inhibitory effect of AICAR on VEGF induced c-Abl phosphorylation (c-Abl [8]): significantly abolished
- effect of inhibitor pretreatment on the inhibitory effect of AICAR on H2O2 induced c-Abl phosphorylation (c-Abl [5]): significantly restored
